{"source": "patent US5324502A", "about": "“Radiopharmaceuticals for imaging the heart” (priority 1992, dated 1994)", "key": {"[1]": {"conditions": "rat, i.v.; for Heart/Blood / Heart/Liver / Heart/Lungs: ratio", "protocol": "The gallium-67 complexes are prepared by ligand exchange from gallium-67 chloride, employing the tris(acetylacetonato)gallium(III) complex as an intermediate. The Ga-67 acetylacetonate in ethanol is reacted with the chelating ligand or ligand precursor at elevated temperature to form rapidly the desired gallium radiopharmaceutical. […] The biodistribution of several radiopharmaceuticals was determined in rats following intravenous injection using techniques previously described (M. A. Green, Nuclear Medicine and Biology 14:59-61, 1987; E. John and M. A. Green, J. Medicinal Chemistry, 33:1764-1770, 1990).\nUnder ether anesthesia, 1 to 3 μCi (0.1-0.2 mL) of no-carrier-added Ga-67 compound was administered by bolus injection into the femoral vein of male Sprague-Dawley rats. The ether anesthetized rats were sacrificed by decapitation at given time intervals post-injection, organs of interest were removed, weighed, and the gallium-67 activity counted. The biodistribution was calculated as a percentage of the injected dose per gram of tissue and percentage of injected dose per organ for each sample."}, "[2]": {"experiment": "Octanol/water partition coefficient of radiolabeled gallium complexes", "assay_type": "physicochemical", "conditions": "1-octanol / isotonic Tris buffer pH 7.0", "protocol": "Octanol/water partition coefficients were measured by vortex mixing 1 mL of 1-octanol and 1 mL of isotonic Tris buffer (pH 7.0) with a 1-5 μL sample of the radiolabeled gallium complex. Following centrifugation at >1200 g for 5 minutes, the octanol and aqueous phases were sampled and counted in an automatic well counter."}}, "note": "Where two headings read alike, the source gives them in different places."}
{"smiles": "COc1cc([O-])c(C=NCCNCCNCCN=Cc2c([O-])cc(OC)cc2OC)c(OC)c1.[67Ga+3]", "note": "[(4,6-MeO2 Sal)2 TETA, ^67 GaL^+ L = [bis(4,6-dimethoxysalicylaldimino)-N,N'-triethylene-tetraamine]]", "values": [{"measurement": "% Injected Dose per Gram Tissue, Blood", "setting": "[1]; 1 min", "value": "1.90 ± 0.56 % Injected Dose per Gram Tissu"}, {"measurement": "% Injected Dose per Gram Tissue, Brain", "setting": "[1]; 1 min", "value": "0.05 ± 0.01 % Injected Dose per Gram Tissu"}, {"measurement": "% Injected Dose per Gram Tissue, Heart", "setting": "[1]; 1 min", "value": "0.76 ± 0.04 % Injected Dose per Gram Tissu"}, {"measurement": "% Injected Dose per Gram Tissue, Kidney (one)", "setting": "[1]; 1 min", "value": "4.36 ± 0.27 % Injected Dose per Gram Tissu"}, {"measurement": "% Injected Dose per Gram Tissue, Liver", "setting": "[1]; 1 min", "value": "1.88 ± 0.15 % Injected Dose per Gram Tissu"}, {"measurement": "% Injected Dose per Gram Tissue, Lungs", "setting": "[1]; 1 min", "value": "0.97 ± 0.03 % Injected Dose per Gram Tissu"}, {"measurement": "% Injected Dose per Gram Tissue, Spleen", "setting": "[1]; 1 min", "value": "0.35 ± 0.02 % Injected Dose per Gram Tissu"}, {"measurement": "% Injected Dose per Organ, Blood", "setting": "[1]; 1 min", "value": "19.26 ± 2.97", "unit": "% Injected Dose per Organ"}, {"measurement": "% Injected Dose per Organ, Brain", "setting": "[1]; 1 min", "value": "0.07 ± 0.01", "unit": "% Injected Dose per Organ"}, {"measurement": "% Injected Dose per Organ, Heart", "setting": "[1]; 1 min", "value": "0.55 ± 0.04", "unit": "% Injected Dose per Organ"}, {"measurement": "% Injected Dose per Organ, Kidney (one)", "setting": "[1]; 1 min", "value": "3.83 ± 0.31", "unit": "% Injected Dose per Organ"}, {"measurement": "% Injected Dose per Organ, Liver", "setting": "[1]; 1 min", "value": "16.90 ± 1.70", "unit": "% Injected Dose per Organ"}, {"measurement": "% Injected Dose per Organ, Lungs", "setting": "[1]; 1 min", "value": "1.17 ± 0.23", "unit": "% Injected Dose per Organ"}, {"measurement": "% Injected Dose per Organ, Spleen", "setting": "[1]; 1 min", "value": "0.22 ± 0.01", "unit": "% Injected Dose per Organ"}, {"measurement": "% injected dose in heart, 1 min", "setting": "[1]; 1 min, preliminary studies", "value": "0.55 ± 0.04", "unit": "% injected dose"}, {"measurement": "% Injected Dose per Gram Tissue, Blood", "setting": "[1]; 15 min", "value": "0.71 ± 0.08 % Injected Dose per Gram Tissu"}, {"measurement": "% Injected Dose per Gram Tissue, Brain", "setting": "[1]; 15 min", "value": "0.03 ± 0.01 % Injected Dose per Gram Tissu"}, {"measurement": "% Injected Dose per Gram Tissue, Heart", "setting": "[1]; 15 min", "value": "0.53 ± 0.06 % Injected Dose per Gram Tissu"}, {"measurement": "% Injected Dose per Gram Tissue, Kidney (one)", "setting": "[1]; 15 min", "value": "2.35 ± 0.41 % Injected Dose per Gram Tissu"}, {"measurement": "% Injected Dose per Gram Tissue, Liver", "setting": "[1]; 15 min", "value": "2.42 ± 0.25 % Injected Dose per Gram Tissu"}, {"measurement": "% Injected Dose per Gram Tissue, Lungs", "setting": "[1]; 15 min", "value": "0.51 ± 0.05 % Injected Dose per Gram Tissu"}, {"measurement": "% Injected Dose per Gram Tissue, Spleen", "setting": "[1]; 15 min", "value": "0.18 ± 0.02 % Injected Dose per Gram Tissu"}, {"measurement": "% Injected Dose per Organ, Blood", "setting": "[1]; 15 min", "value": "9.32 ± 1.38", "unit": "% Injected Dose per Organ"}, {"measurement": "% Injected Dose per Organ, Brain", "setting": "[1]; 15 min", "value": "0.04 ± 0.01", "unit": "% Injected Dose per Organ"}, {"measurement": "% Injected Dose per Organ, Heart", "setting": "[1]; 15 min", "value": "0.36 ± 0.03", "unit": "% Injected Dose per Organ"}, {"measurement": "% Injected Dose per Organ, Kidney (one)", "setting": "[1]; 15 min", "value": "1.89 ± 0.40", "unit": "% Injected Dose per Organ"}, {"measurement": "% Injected Dose per Organ, Liver", "setting": "[1]; 15 min", "value": "20.33 ± 1.11", "unit": "% Injected Dose per Organ"}, {"measurement": "% Injected Dose per Organ, Lungs", "setting": "[1]; 15 min", "value": "0.50 ± 0.05", "unit": "% Injected Dose per Organ"}, {"measurement": "% Injected Dose per Organ, Spleen", "setting": "[1]; 15 min", "value": "0.11 ± 0.02", "unit": "% Injected Dose per Organ"}, {"measurement": "% Injected Dose per Gram Tissue, Blood", "setting": "[1]; 120 min", "value": "0.03 ± 0.01 % Injected Dose per Gram Tissu"}, {"measurement": "% Injected Dose per Gram Tissue, Brain", "setting": "[1]; 120 min", "value": "0.01 ± 0.01 % Injected Dose per Gram Tissu"}, {"measurement": "% Injected Dose per Gram Tissue, Heart", "setting": "[1]; 120 min", "value": "0.28 ± 0.05 % Injected Dose per Gram Tissu"}, {"measurement": "% Injected Dose per Gram Tissue, Kidney (one)", "setting": "[1]; 120 min", "value": "0.51 ± 0.10 % Injected Dose per Gram Tissu"}, {"measurement": "% Injected Dose per Gram Tissue, Liver", "setting": "[1]; 120 min", "value": "0.83 ± 0.15 % Injected Dose per Gram Tissu"}, {"measurement": "% Injected Dose per Gram Tissue, Lungs", "setting": "[1]; 120 min", "value": "0.08 ± 0.02 % Injected Dose per Gram Tissu"}, {"measurement": "% Injected Dose per Gram Tissue, Spleen", "setting": "[1]; 120 min", "value": "0.06 ± 0.01 % Injected Dose per Gram Tissu"}, {"measurement": "% Injected Dose per Organ, Blood", "setting": "[1]; 120 min", "value": "0.34 ± 0.02", "unit": "% Injected Dose per Organ"}, {"measurement": "% Injected Dose per Organ, Brain", "setting": "[1]; 120 min", "value": "0.01 ± 0.01", "unit": "% Injected Dose per Organ"}, {"measurement": "% Injected Dose per Organ, Heart", "setting": "[1]; 120 min", "value": "0.19 ± 0.03", "unit": "% Injected Dose per Organ"}, {"measurement": "% Injected Dose per Organ, Kidney (one)", "setting": "[1]; 120 min", "value": "0.42 ± 0.04", "unit": "% Injected Dose per Organ"}, {"measurement": "% Injected Dose per Organ, Liver", "setting": "[1]; 120 min", "value": "6.90 ± 1.07", "unit": "% Injected Dose per Organ"}, {"measurement": "% Injected Dose per Organ, Lungs", "setting": "[1]; 120 min", "value": "0.10 ± 0.01", "unit": "% Injected Dose per Organ"}, {"measurement": "% Injected Dose per Organ, Spleen", "setting": "[1]; 120 min", "value": "0.04 ± 0.01", "unit": "% Injected Dose per Organ"}, {"measurement": "% injected dose in heart, 2 h", "setting": "[1]; 2 h, preliminary studies", "value": "0.19 ± 0.03", "unit": "% injected dose"}, {"measurement": "Heart/Blood", "setting": "[1]; 1 min", "value": "0.53 ± 0.04"}, {"measurement": "Heart/Liver", "setting": "[1]; 1 min", "value": "0.41 ± 0.04"}, {"measurement": "Heart/Lungs", "setting": "[1]; 1 min", "value": "0.79 ± 0.05"}, {"measurement": "Heart/Blood", "setting": "[1]; 15 min", "value": "0.74 ± 0.03"}, {"measurement": "Heart/Liver", "setting": "[1]; 15 min", "value": "0.22 ± 0.01"}, {"measurement": "Heart/Lungs", "setting": "[1]; 15 min", "value": "1.03 ± 0.20"}, {"measurement": "Heart/Blood", "setting": "[1]; 120 min", "value": "10.29 ± 2.64"}, {"measurement": "Heart/Liver", "setting": "[1]; 120 min", "value": "0.34 ± 0.05"}, {"measurement": "Heart/Lungs", "setting": "[1]; 120 min", "value": "3.49 ± 0.37"}, {"measurement": "log P", "setting": "[2]", "value": 0.24}]}
